Test results from US10702575B2, “Pharmaceutical composition for preventing or treating mycobacterium species infection and method using the same” (Seoul National University R&DB Foundation, priority 2017, dated 2020).
Converted amounts (≈) assume the structure as drawn. *1 amine or outer side, *2 acyl side, *3 side chain or, on linkers, in order; H or OH if unused. Where a SMILES comes first, the peptide text is derived from it. Bridges are numbered along the chain shown (N, C = ends). [ ]: non-standard residue; d: D form. The star is where a group is joined. ξ: configuration not given here. NMeTrp(4-OMe) = CN[CH](Cc1c[nH]c2cccc(OC)c12)C(=O)O; X1 = O=C(C(N[*:1])C(O)c1ccccc1)[*:2]; ξNMe2Val = CC(C)C(C(=O)*)N(C)C; NMeT = CN[CH](C(=O)O)[CH](C)O; NMeL = CN[CH](CC(C)C)C(=O)O; NMeV = CN[CH](C(=O)O)C(C)C

Legend:
macrophage = experiment: mCherry-EGFP-LC3B autophagic flux in transfected macrophage; details: 10 μM, about 24 hours
From the text: Further, a macrophage was transfected with a retrovirus vector that expresses mCherry-enhanced green fluorescent protein (EGFP)-LC3B. […] Fluorescent images of the transfected macrophage were obtained, which are shown in FIG. 9 (“UN” represented “untreated”, and “N” represents “nucleus”).

Mtb phagosome = experiment: co-localization of Mtb phagosome with LC3 or LAMP2 in macrophage; assay type: cell-based, mouse; details: 10 μM, about 24 hours, ERFP-Mtb macrophage
[1] = system: AMP-activated protein kinase (AMPK) cell signaling pathway; assay type: cell-based, mouse
[2] = system: Bone-marrow-derived macrophages (BMDM); experiment: LC3 puncta formation assay in macrophage; assay type: cell-based, mouse; details: 10 μM, about 24 hours
Experimental: LC3 puncta formation and lipidation assay (Eisuke and Noboru, Autophagy, 2010, vol. 6, p. 764-776), which is mainly used in macrophage autophagy measurement, was performed. 10 μM of OMS-A or 10 μM of OMS-B was added to BMDM prepared in Section 4, and then cultured for about 24 hours. As a negative control, PBS was used. Subsequently, macrophage was stained with 4′,6-diamidino-2-phenylindole (DAPI, available from Sigma) and anti-LC3 antibody (available from Cell Signaling), and the number of LC3 puncta per macrophage was measured. The images of the stained macrophages are shown in FIG. 6A (“UN” represents “untreated”), and the number of LC3 puncta per macrophage are shown in FIG. 6B (**: p<0.01).

LC3 = LC3 immunoblotting of macrophage cytolysate; assay type: cell-based, mouse; details: for amount of LC3-II (FIG. 7A): 1 μM, 5 μM, 10 μM, about 24 hours, macrophage; for amount of LC3-II after pre-treatment, compared with treatment with OMS-A or OMS-B (FIG. 7B): pre-treatment with 10 μM 3-MA or 100 nM Baf-A before OMS-A or OMS-B
Experimental: The obtained cytolysate was subjected to immunoblotting using anti-LC3 antibody (available from Cell Signaling) and anti-β-actin antibody (available from Santa Cruz). The results thereof are shown in FIG. 7A (“U” represents “untreated”). Further, in the case of pre-treatment of a macrophage with 10 μM of 3-methyladenine (3-MA), which is an autophagy inhibitor, or 100 nM of Bafilomycin A1 (Baf-A), which is an H^+-ATPase inhibitor, the immunoblot images of the macrophage are shown in FIG. 7B (“U” represents “untreated”, and “SC” represents “solvent control”).

NF-κB = assay type: cell-based, mouse; details: 1 μM, 5 μM, 10 μM, about 6 hours
Mtb H37Rv strain = assay type: cell-based, Mycobacterium tuberculosis; details: REMA; for anti-Mycobacterium tuberculosis activity as compared with INH, EMB, and SQ109 (FIG. 2): RFU vs concentration
LC3B = experiment: flow cytometry of macrophage with anti-LC3B antibody; assay type: cell-based, mouse; details: 10 μM, about 24 hours
Experimental: Subsequently, a mean fluorescence intensity (MFI) of the macrophage was measured using the anti-LC3B antibody (available from Cell Signaling) according to flow cytometry.

M. marinum = experiment: Mycobacterium marinum-Drosophila melanogaster infection system; assay type: in vivo; details: for viability of Drosophila melanogaster infected with M. marinum (FIG. 5A): OMS-A 1 μM or 10 μM, AMK 1 μg/ml in culture medium, about 30 days

| Compound | number of red puncta, mCherry-EGFP-LC3B (FIG. 9) (macrophage) | co-localization of LAMP2 and Mtb phagosome (FIGS. 10C, 10D) (Mtb phagosome) | co-localization of LC3 and Mtb phagosome (FIGS. 10A, 10B) (Mtb phagosome) | phoshorylation in Ser78 (S79) of ACC (FIGS. 11A, 11B) [1] | phoshorylation in Thr172 of AMPKα (FIGS. 11A, 11B) [1] | LC3 puncta formation per macrophage (FIGS. 6A, 6B) [2] | amount of LC3-II (FIG. 7A) (LC3) | NF-κB luciferase activity (FIG. 12B) (NF-κB) | MIC50 (bacterial growth 50% MIC) (Mtb H37Rv strain) | anti-Mycobacterium tuberculosis activity as compared with INH, EMB, and SQ109 (FIG. 2) (Mtb H37Rv strain) | LC3B expression, mean fluorescence intensity (FIG. 8) (LC3B) | viability of Drosophila melanogaster infected with M. marinum (FIG. 5A) (M. marinum) | amount of LC3-II after pre-treatment, compared with treatment with OMS-A or OMS-B (FIG. 7B) (LC3) | CFUs of M. marinum present in Drosophila melanogaster (FIG. 5B) (M. marinum; 1 μM or 10 μM OMS-A, compared with negative control (SC)) |
| --- | --- | --- | --- | --- | --- | --- | --- | --- | --- | --- | --- | --- | --- | --- |
| COc1cccc2[nH]cc(CC3C(=O)NC(C(C)C)C(=O)NC(C(O)c4ccccc4)C(=O)NC(C(C)C)C(=O)OC(C)C(NC(=O)C(NC(=O)C(C(C)C)N(C)C)C(C)C)C(=O)N(C)C(C(C)O)C(=O)NC(C(C)C)C(=O)N(C)C(CC(C)C)C(=O)NC(C(C)C)C(=O)N(C)C(C(C)C)C(=O)N3C)c12 (stereo not drawn) [OMS-B, Ohmyungsamycin B] (ξNMe2Val-VT[NMeT]V[NMeL]V[NMeV][NMeTrp(4-OMe)]V[X1]V; ester 2-C; configuration not given here) | increased | increased | increased | induced | induced | great | increased as compared with LC3-I | decreases in a concentration-dependent manner | 0.117 µM (≈ 0.172 µg/mL) | excellent anti-Mycobacterium tuberculosis activity | increased level | – | – | – |
| NCC[C@H](O)C(=O)N[C@@H]1C[C@H](N)[C@@H](O[C@H]2O[C@H](CN)[C@@H](O)[C@H](O)[C@H]2O)[C@H](O)[C@H]1O[C@H]1O[C@H](CO)[C@@H](O)[C@H](N)[C@H]1O [AMK, amikacin, reference compound] | – | – | – | – | – | – | – | – | – | – | – | increased viability | – | – |
| Cn1cnc(N)c2ncnc1-2 [3-MA, 3-methyladenine, reference compound] | – | – | – | – | – | – | – | – | – | – | – | – | decreased | – |
| CO/C1=C\C(C)=C\[C@@H](C)[C@@H](O)[C@@H](C)C/C(C)=C/C=C/[C@H](OC)[C@@H]([C@@H](C)[C@@H](O)[C@H](C)[C@@]2(O)C[C@@H](O)[C@H](C)[C@@H](C(C)C)O2)OC1=O [Baf-A, Bafilomycin A1, reference compound] | – | – | – | – | – | – | – | – | – | – | – | – | increased | – |
| CNC(C(=O)NC(C(=O)NC1C(=O)N(C)C(C(C)O)C(=O)NC(C(C)C)C(=O)N(C)C(CC(C)C)C(=O)NC(C(C)C)C(=O)N(C)C(C(C)C)C(=O)N(C)C(Cc2c[nH]c3cccc(OC)c23)C(=O)NC(C(C)C)C(=O)NC(C(O)c2ccccc2)C(=O)NC(C(C)C)C(=O)OC1C)C(C)C)C(C)C (stereo not drawn) [OMS-A, Ohmyungsamycin A] (H-[NMeV]VT[NMeT]V[NMeL]V[NMeV][NMeTrp(4-OMe)]V[X1]V; ester 3-C; configuration not given here) | increased | increased | increased | induced | induced | great | increased as compared with LC3-I | decreases in a concentration-dependent manner | 0.057 µM (≈ 0.0832 µg/mL) | excellent anti-Mycobacterium tuberculosis activity | increased level | increased viability | – | decreased in a concentration-dependent manner |
